Assay results taken from ChEMBL document CHEMBL1147535, “Biaryl amide glucagon receptor antagonists” (Bioorg Med Chem Lett, 2004).

Assays:
Adenylate cyclase [1] = assay: In vitro inhibitory activity against glucagon induced human adenylate cyclase; assay type: protein assay
Glucagon receptor = Glucagon receptor (Homo sapiens, UniProt P47871); assay: In vitro binding affinity against human glucagon receptor (h-GlucR) was determined
[2] = Oral bioavailability; assay type: ADME, organism-based; settings: eutheria, in vivo
Adenylate cyclase [3] = assay: In vitro inhibitory activity against glucagon induced monkey adenylate cyclase; assay type: protein assay, Cercopithecidae
Rattus norvegicus = assay: Percent reduction of glucagon induced glucose excursion by the compound after an i.v. dose of 50 mg/kg to rats; assay type: functional; settings: route intravenous

Sequence of Glucagon receptor (P47871 whole entry): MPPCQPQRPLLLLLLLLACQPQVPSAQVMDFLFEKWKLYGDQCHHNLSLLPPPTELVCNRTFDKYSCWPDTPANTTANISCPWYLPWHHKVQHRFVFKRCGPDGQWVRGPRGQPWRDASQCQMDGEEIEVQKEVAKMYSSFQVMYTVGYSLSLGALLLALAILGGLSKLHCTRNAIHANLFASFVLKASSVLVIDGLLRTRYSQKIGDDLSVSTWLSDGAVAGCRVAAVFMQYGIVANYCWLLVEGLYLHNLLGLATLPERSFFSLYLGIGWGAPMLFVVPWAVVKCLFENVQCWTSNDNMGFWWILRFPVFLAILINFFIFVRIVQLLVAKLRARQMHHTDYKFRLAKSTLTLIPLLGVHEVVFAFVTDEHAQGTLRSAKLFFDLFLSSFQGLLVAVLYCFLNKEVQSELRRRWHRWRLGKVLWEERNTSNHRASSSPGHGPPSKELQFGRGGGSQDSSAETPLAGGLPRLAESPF

Row | SMILES | Ki (Adenylate cyclase [1]) [nM] | Ki (Glucagon receptor) [nM] | bioavailability [2] [%] | Ki (Adenylate cyclase [3]) [nM] | Reduction (Rattus norvegicus) [%]
1 | CC(C)(C)c1ccc(C(Cc2ccc(C(=O)NCCC(=O)O)cc2)C(=O)Nc2ccc(COC(F)(F)F)cc2)cc1 (stereo not given) | > 2000 | 5000 | – | – | –
2 | CCc1ccc(NC(=O)C(Cc2ccc(C(=O)NCCC(=O)O)cc2)c2ccc(C(C)(C)C)cc2)cc1 (stereo not given) | > 2000 | 26 | – | – | –
3 | Cc1ccc(N2CCN(C(=O)C(Cc3ccc(C(=O)NCCC(=O)O)cc3)c3ccc(C(C)(C)C)cc3)CC2)cc1 (stereo not given) | > 2000 | 400 | – | – | –
4 | CC(C)(C)c1ccc(C(Cc2ccc(C(=O)NCCC(=O)O)cc2)C(=O)Nc2ccc(N3CCCCC3)cc2)cc1 (stereo not given) | > 2000 | 73 | – | – | –
5 | CC(C)(C)c1ccc(C(Cc2ccc(C(=O)NCCC(=O)O)cc2)C(=O)Nc2ccc(-c3ccccc3)cc2)cc1 (stereo not given) | 300 | 11 | – | – | –
6 | CC(C)(C)c1ccc(C(Oc2ccc(C(=O)Nc3nn[nH]n3)cc2)C(=O)Nc2ccc(-c3ccccc3)cc2)cc1 (stereo not given) | 317 | 66 | – | – | –
7 | CC(C)(C)c1ccc(C(Cc2ccc(C(=O)NCCC(=O)O)cc2)C(=O)Nc2ccc(-c3ccc(Cl)cc3Cl)cc2)cc1 (stereo not given) | 33 | 6 | – | – | –
8 | CCc1cccc(NC(=O)C(Cc2ccc(C(=O)NCCC(=O)O)cc2)c2ccc(C(C)(C)C)cc2)c1 (stereo not given) | > 2000 | 80 | – | – | –
9 | CC(C)(C)c1ccc(C(Oc2ccc(C(=O)NCC(O)C(=O)O)cc2)C(=O)Nc2ccc(-c3ccccc3)cc2)cc1 (stereo not given) | > 2000 | 112 | – | – | –

Further lines, with some results ahead:

Row | Ki (Adenylate cyclase [1]) [nM] | Ki (Glucagon receptor) [nM] | bioavailability [2] [%] | Ki (Adenylate cyclase [3]) [nM] | SMILES | Reduction (Rattus norvegicus) [%]
10 | 144 | 9 | – | – | CC(C)(C)c1ccc(C(Oc2ccc(C(=O)NCCC(=O)O)cc2)C(=O)Nc2ccc(-c3ccccc3)cc2)cc1 (stereo not given) | –
11 | 20 | 6 | – | – | CCCCCCC(Cc1ccc(C(=O)NCCC(=O)O)cc1)C(=O)Nc1ccc(-c2cc3ccccc3o2)cc1 (stereo not given) | –
12 | 17 | 3 | – | – | CCCCCCC(Oc1ccc(C(=O)NCCC(=O)O)cc1)C(=O)Nc1ccc(-c2cc3ccccc3o2)cc1 (stereo not given) | –
13 | > 2000 | 26 | – | – | CC(C)(C)c1ccc(C(Oc2ccc(C(=O)NCC(F)C(=O)O)cc2)C(=O)Nc2ccc(-c3ccccc3)cc2)cc1 (stereo not given) | –
14 | 14 | 6 | – | – | CCCCCCC(Oc1ccc(C(=O)NCCC(=O)O)cc1)C(=O)Nc1ccc(-c2ccc(Cl)cc2Cl)cc1 (stereo not given) | –
15 | > 2000 | 70 | – | – | CC(C)(C)c1ccc(C(Cc2ccc(C(=O)NCCC(=O)O)cc2)C(=O)Nc2ccc(-n3cccn3)cc2)cc1 (stereo not given) | –
16 | 29 | 4 | < 5 | 69 | CC(C)(C)c1ccc(C(Cc2ccc(C(=O)NCCC(=O)O)cc2)C(=O)Nc2ccc(-c3cc4ccccc4o3)cc2)cc1 (stereo not given) | 50
17 | 1000 | 29 | – | – | CC(C)(C)c1ccc(C(Cc2ccc(C(=O)NCCC(=O)O)cc2)C(=O)Nc2ccc(CO)cc2)cc1 (stereo not given) | –
18 | > 2000 | > 5000 | – | – | CCN1CCN(C(=O)C(Cc2ccc(C(=O)NCCC(=O)O)cc2)c2ccc(C(C)(C)C)cc2)CC1 (stereo not given) | –
19 | 254 | 63 | – | – | CC(C)(C)[C@H]1CC[C@H](N(Cc2ccc(C(=O)NCCC(=O)O)cc2)C(=O)Nc2ccc(OC(F)(F)F)cc2)CC1 | –
20 | 110 | 51 | – | – | CC(C)(C)c1ccc(C(Cc2ccc(C(=O)NCCC(=O)O)cc2)C(=O)Nc2ccc(OC(F)(F)F)cc2)cc1 (stereo not given) | –
21 | 610 | 11 | – | – | CC(C)(C)c1ccc(C(Cc2ccc(C(=O)NCCC(=O)O)cc2)C(=O)Nc2cnc3ccccc3c2)cc1 (stereo not given) | –
